Reference: ChEMBL document CHEMBL5465560, “Selectivity Literature for EUbOPEN Chemogenomic Library” (2024)

How the values were obtained:
[1] = biological target: T1, Histone-lysine N-methyltransferase EHMT2 (Homo sapiens) (UniProt Q96KQ7); assay: Selectivity interaction (Methyltransferase screen (radiometric assays, panel of 8 PRMTs, 21 protein lysine methyltransferases, 3 DNA methyltransferases, and one RNA methyltransferase)) EUB0000272b EHMT2
T1 sequence (whole entry): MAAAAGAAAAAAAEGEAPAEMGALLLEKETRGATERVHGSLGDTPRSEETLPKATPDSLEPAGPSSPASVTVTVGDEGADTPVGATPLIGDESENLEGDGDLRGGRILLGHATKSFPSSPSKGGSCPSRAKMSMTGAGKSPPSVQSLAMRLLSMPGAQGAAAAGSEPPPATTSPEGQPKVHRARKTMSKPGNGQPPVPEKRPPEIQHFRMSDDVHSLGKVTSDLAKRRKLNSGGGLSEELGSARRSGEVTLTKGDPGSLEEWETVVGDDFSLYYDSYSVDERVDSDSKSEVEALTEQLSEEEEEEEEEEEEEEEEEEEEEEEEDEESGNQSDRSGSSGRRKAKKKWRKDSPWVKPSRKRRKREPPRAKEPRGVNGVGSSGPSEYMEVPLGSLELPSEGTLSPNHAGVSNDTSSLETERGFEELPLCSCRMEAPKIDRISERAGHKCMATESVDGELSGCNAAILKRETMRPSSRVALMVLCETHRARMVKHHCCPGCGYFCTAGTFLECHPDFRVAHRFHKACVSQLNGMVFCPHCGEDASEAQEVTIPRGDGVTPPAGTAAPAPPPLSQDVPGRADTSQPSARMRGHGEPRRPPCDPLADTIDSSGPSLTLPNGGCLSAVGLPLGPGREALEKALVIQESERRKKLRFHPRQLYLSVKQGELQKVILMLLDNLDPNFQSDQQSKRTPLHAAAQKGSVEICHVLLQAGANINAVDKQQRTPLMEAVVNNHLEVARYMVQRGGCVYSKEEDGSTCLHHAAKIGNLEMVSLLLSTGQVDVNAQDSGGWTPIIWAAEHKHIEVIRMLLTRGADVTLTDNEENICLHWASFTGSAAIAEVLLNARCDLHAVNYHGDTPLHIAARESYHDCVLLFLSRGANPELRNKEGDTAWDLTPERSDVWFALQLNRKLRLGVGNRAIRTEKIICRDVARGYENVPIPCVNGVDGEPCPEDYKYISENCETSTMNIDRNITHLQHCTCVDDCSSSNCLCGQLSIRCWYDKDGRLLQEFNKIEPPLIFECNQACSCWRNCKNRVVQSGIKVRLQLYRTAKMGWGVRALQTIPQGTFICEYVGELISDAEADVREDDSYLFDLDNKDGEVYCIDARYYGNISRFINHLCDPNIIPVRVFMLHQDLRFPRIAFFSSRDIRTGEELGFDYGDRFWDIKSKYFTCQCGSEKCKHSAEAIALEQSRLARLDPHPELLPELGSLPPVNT

[2] = biological target: T2, MAP/microtubule affinity-regulating kinase 4 (Homo sapiens) (UniProt Q96L34); assay: Selectivity interaction (Ambit KINOMEscan and KiNATiv profiling in Jurkat cells) EUB0000090b MARK4; assay type: cell-based; conditions: at 1 µM
T2 sequence (whole entry): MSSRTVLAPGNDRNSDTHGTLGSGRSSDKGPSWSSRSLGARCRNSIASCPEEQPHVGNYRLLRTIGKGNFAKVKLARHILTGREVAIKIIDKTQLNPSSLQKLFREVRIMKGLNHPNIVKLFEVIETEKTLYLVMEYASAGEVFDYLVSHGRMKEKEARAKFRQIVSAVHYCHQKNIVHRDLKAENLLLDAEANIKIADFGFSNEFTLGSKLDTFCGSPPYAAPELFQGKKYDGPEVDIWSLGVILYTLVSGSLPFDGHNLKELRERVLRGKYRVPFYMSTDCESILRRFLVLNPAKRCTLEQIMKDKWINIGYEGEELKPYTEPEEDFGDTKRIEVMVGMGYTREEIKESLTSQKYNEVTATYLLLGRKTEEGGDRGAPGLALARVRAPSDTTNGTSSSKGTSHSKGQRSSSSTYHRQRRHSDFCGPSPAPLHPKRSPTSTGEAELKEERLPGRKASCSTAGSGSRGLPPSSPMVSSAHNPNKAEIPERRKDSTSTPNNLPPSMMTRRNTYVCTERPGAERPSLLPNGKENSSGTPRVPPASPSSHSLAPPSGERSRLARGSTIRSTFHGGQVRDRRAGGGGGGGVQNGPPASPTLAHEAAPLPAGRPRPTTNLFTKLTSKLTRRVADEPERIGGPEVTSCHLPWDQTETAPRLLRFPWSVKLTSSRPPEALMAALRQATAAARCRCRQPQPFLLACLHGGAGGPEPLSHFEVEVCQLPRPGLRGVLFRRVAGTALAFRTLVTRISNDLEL

[3] = biological target: Mitogen-activated protein kinase kinase kinase 9 (Homo sapiens) (UniProt P80192); assay: Selectivity interaction (KinomeScan (DiscoverX)) EUB0001619a MAP3K9; conditions: at 1 µM
[4] = biological target: Non-receptor tyrosine-protein kinase TYK2 (Homo sapiens, UniProt P29597); assay: Selectivity interaction (KinomeScan (DiscoverX)) EUB0001619a TYK2; conditions: at 1 µM
[5] = biological target: STE20/SPS1-related proline-alanine-rich protein kinase (Homo sapiens) (UniProt Q9UEW8); assay: Selectivity interaction (Kinase panel (DSF assay)) EUB0001558a STK39
[6] = tested on: Proto-oncogene tyrosine-protein kinase receptor Ret (Homo sapiens), P07949 [V804M]; assay: (§1) Selectivity interaction (KinomeScan (DiscoverX)) EUB0001049a RET; conditions: at 1 µM
[7] = tested on: Proto-oncogene tyrosine-protein kinase receptor Ret (Homo sapiens), P07949 [V804L]; assay: as §1; conditions: at 1 µM
[8] = biological target: Proto-oncogene tyrosine-protein kinase receptor Ret (Homo sapiens, UniProt P07949); assay: as §1; conditions: at 1 µM
[9] = tested on: Proto-oncogene tyrosine-protein kinase receptor Ret (Homo sapiens), P07949 [M918T]; assay: as §1; conditions: at 1 µM
[10] = biological target: Myosin light chain kinase, smooth muscle (Homo sapiens, UniProt Q15746); assay: Selectivity interaction (KinomeScan (DiscoverX)) EUB0000666a MYLK; conditions: at 10 µM
Sequence of Myosin light chain kinase, smooth muscle (Q15746 whole entry): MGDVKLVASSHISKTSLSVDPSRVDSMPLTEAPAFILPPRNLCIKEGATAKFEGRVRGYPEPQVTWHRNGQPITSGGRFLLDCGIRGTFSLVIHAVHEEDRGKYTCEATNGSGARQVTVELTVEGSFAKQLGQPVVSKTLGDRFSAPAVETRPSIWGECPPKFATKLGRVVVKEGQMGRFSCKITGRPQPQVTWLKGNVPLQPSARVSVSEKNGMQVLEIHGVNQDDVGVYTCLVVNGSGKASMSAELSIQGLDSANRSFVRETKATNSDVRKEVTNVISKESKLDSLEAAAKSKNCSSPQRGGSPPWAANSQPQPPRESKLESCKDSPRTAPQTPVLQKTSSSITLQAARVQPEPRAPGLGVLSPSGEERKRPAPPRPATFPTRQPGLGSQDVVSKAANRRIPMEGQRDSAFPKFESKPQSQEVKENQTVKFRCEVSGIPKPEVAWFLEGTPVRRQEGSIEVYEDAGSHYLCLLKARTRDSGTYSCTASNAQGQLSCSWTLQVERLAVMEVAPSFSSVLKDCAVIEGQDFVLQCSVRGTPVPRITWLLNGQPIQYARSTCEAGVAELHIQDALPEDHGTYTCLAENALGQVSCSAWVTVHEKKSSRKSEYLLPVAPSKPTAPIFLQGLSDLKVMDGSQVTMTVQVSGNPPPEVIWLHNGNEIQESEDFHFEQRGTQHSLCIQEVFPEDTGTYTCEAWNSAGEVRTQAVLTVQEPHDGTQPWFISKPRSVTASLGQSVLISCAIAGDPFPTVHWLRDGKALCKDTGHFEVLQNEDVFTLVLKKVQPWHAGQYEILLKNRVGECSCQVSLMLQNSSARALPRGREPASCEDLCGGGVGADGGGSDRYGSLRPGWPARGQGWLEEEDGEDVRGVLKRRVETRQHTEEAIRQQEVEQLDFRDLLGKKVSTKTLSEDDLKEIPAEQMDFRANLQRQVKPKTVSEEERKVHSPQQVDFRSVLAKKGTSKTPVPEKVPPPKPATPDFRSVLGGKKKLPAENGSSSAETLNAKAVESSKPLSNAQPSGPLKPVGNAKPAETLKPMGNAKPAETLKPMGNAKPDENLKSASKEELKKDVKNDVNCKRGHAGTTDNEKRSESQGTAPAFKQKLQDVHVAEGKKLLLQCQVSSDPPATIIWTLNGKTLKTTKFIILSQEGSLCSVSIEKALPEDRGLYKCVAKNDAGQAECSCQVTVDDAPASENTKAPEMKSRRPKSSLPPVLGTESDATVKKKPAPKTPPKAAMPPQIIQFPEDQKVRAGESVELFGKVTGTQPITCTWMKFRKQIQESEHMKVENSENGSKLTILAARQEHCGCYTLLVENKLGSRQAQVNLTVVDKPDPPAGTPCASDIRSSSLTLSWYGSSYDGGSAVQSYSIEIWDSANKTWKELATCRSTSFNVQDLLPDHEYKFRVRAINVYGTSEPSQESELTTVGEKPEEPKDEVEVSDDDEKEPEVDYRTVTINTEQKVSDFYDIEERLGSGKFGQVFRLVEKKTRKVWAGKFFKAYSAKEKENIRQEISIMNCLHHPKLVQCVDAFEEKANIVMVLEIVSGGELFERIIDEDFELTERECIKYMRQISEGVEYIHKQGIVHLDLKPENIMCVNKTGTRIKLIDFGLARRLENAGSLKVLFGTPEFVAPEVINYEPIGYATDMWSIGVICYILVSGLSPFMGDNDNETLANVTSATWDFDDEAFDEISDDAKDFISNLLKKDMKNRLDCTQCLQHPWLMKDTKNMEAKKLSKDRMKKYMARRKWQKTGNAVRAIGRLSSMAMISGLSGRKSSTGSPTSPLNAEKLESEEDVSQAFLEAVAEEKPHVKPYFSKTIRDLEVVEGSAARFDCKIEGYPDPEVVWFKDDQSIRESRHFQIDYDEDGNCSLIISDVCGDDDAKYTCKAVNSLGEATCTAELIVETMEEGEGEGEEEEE

Sequence of Non-receptor tyrosine-protein kinase TYK2 (P29597 whole entry): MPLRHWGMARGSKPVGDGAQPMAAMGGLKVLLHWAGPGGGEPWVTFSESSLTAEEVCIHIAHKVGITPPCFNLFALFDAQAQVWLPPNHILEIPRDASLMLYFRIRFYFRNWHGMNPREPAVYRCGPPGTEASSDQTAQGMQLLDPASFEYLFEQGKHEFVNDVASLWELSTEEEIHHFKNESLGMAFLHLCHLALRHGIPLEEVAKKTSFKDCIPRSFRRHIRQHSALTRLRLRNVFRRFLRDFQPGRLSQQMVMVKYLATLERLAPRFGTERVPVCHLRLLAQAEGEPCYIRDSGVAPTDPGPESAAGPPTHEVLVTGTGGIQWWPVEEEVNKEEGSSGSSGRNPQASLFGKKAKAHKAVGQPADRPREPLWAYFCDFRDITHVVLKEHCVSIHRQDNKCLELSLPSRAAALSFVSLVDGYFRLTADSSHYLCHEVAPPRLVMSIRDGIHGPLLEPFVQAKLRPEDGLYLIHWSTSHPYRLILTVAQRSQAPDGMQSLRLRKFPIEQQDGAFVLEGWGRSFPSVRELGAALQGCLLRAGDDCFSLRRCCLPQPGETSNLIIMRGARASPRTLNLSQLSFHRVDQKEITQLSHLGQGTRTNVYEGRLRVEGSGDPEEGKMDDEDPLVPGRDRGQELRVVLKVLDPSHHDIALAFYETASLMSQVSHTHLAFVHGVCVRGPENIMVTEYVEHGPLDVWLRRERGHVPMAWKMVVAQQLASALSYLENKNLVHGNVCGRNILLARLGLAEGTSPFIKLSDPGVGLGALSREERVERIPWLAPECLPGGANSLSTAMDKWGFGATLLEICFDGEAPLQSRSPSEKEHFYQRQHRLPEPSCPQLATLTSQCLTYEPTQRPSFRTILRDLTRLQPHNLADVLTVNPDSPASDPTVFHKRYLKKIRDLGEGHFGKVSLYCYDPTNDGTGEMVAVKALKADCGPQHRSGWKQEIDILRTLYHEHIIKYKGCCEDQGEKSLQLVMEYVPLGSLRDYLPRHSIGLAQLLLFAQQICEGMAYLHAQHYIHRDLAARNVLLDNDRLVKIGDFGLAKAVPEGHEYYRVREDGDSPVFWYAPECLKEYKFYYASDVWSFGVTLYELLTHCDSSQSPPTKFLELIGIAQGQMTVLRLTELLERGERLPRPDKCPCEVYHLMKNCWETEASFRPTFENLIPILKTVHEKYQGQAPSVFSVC
Sequence of Mitogen-activated protein kinase kinase kinase 9 (Homo sapiens) (P80192 whole entry, looked up): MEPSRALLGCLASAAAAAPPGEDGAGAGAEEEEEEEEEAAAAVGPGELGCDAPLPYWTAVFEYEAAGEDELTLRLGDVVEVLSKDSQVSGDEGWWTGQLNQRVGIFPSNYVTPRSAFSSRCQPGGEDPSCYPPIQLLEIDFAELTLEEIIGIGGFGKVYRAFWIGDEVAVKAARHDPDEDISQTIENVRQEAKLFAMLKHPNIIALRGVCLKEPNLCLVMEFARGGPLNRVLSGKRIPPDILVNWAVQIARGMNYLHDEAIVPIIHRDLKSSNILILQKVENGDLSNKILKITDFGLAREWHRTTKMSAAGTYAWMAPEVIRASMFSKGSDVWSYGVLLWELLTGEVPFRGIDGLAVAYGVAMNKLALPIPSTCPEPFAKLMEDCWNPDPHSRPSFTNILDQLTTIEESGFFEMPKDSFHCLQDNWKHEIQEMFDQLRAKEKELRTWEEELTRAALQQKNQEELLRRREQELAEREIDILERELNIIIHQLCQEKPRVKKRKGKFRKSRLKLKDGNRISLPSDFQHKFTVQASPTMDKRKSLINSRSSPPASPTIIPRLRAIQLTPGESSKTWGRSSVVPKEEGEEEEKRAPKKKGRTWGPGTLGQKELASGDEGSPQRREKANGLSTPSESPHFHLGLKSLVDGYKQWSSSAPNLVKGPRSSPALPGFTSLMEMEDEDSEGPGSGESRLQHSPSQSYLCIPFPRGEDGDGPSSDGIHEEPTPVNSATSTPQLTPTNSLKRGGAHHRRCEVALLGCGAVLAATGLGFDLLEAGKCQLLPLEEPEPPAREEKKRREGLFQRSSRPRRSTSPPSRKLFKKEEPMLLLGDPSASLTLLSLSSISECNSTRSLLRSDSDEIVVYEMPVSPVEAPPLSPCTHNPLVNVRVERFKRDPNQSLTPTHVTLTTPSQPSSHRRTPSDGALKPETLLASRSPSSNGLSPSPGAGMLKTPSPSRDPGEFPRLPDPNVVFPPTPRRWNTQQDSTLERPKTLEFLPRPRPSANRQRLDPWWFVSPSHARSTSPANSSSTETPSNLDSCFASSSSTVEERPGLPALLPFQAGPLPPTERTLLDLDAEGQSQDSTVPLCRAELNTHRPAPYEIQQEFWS

Work on Cc1cc(C)cc([C@H]2c3cc(C)ccc3NC(=O)CN2C(=O)c2ccc(Br)s2)c1 yielded a % of activity ([1]; at 1 µM) of 95.7% and a % of activity ([1]; at 10 µM) of 98.3%.

CN(C)C/C=C/C(=O)Nc1ccc(C(=O)N2CCCC(Nc3ncc(Cl)c(-c4c[nH]c5ccccc45)n3)C2)cc1 (stereo unspecified) showed a % of control [2] of 100%.

N#Cc1cccc(-c2c[nH]c3ncnc(N4CCOCC4)c23)c1 gave a % of control [3] of 72% and a % of control [4] of 75%.

CC(C)(O)[C@H](F)CN1Cc2cc(NC(=O)c3cnn4cccnc34)c(N3CCOCC3)cc2C1=O was tested, and the dTM [5] was 0.2 K.

In the case of COc1cc(Nc2nc(C)cc(-c3cnn4nc(OC)ccc34)n2)cc(C(F)(F)F)c1, the % of control [6] is reported as 78%, the % of control [7] is reported as 95% and the % of control [8] is reported as 100%. For the same molecule, the % of control [9] was 98%.

Work on O=C(NOC[C@H](O)CO)c1ccc(F)c(F)c1Nc1ccc(I)cc1F yielded a % of control [10] of 100%.
